Measured values: ChEMBL document CHEMBL4622878, “Cytotoxic Activity of Germacrane-Type Sesquiterpene Lactones from Dimerostemma aspilioides” (J Nat Prod, 2020)
Active and inactive are the calls of the source. The calls are words filed in the database; no cut-off is given here.

Columns and labels:
K562 [1] = experiment: Cytotoxicity against human K562 cells after 48 hrs by MTT assay; assay type: functional, cell-based; conditions: K562, 48 h
ADR5000 cell line = experiment: Cytotoxicity against human CEM/ADR5000 cells after 48 hrs by MTT assay; assay type: functional, cell-based; conditions: ADR5000, 48 h
K562-Lucena 1 [2] = experiment: Cytotoxicity against human K562-Lucena 1 cells after 48 hrs by MTT assay; assay type: functional, cell-based; conditions: K562-Lucena 1, 48 h
CCRF-CEM = experiment: Cytotoxicity against human CCRF-CEM cells after 48 hrs by MTT assay; assay type: functional, cell-based
K562 [3] = experiment: Induction of cell cycle arrest in human K562 cells assessed as decrease in accumulation of cells at G1 phase at 1.4 uM after 24 hrs by propidium iodide staining based flow cytometric analysis; assay type: functional
K562-Lucena 1 [4] = experiment: Induction of cell cycle arrest in human K562-Lucena 1 cells assessed as decrease in accumulation of cells at G1 phase at 40 uM after 24 hrs by propidium iodide staining based flow cytometric analysis; assay type: functional
K562 [5] = experiment: Induction of cell cycle arrest in human K562 cells assessed as decrease in accumulation of cells at S phase at 1.4 uM after 24 hrs by propidium iodide staining based flow cytometric analysis; assay type: functional

Compound	IC50 (K562 [1]) [µM]	IC50 (ADR5000 cell line) [µM]	IC50 (K562-Lucena 1 [2]) [µM]	IC50 (CCRF-CEM) [nM]	Activity (K562 [3])	Activity (K562-Lucena 1 [4])	Activity (K562 [5])
C=C(CO)C(=O)O[C@H]1C/C(CO)=C/CC/C(C)=C/[C@H]2OC(=O)C(=C)[C@H]12	7	1.7	> 10	460	–	–	–
COc1cccc2c1C(=O)c1c(O)c3c(c(O)c1C2=O)C[C@@](O)(C(=O)CO)C[C@@H]3O[C@H]1C[C@H](N)[C@H](O)[C@H](C)O1 [DOXORUBICIN]	1.4	> 10	> 10	170	inactive	Active	inactive
C=C(CO)C(=O)O[C@H]1C[C@@]2(C=O)OC2CC/C(C)=C/[C@H]2OC(=O)C(=C)[C@H]12 (stereo not given in full)	6.9	4.6	> 10	2000	–	–	–
